Source: PMC10023787, “Trio-pharmacophore DNA-encoded chemical library for simultaneous selection of fragments and linkers” (Nature Communications, 2023)
“Also recorded” adds a separate entry of the source. Where two headings read alike, the source gives them in different places.

Assays:
MMP-2 = biological target: T1, MMP-2 (Homo sapiens, UniProt P08253); test: MMP-2 inhibition assay (fluorogenic peptide substrate); format: biochemical; settings: for inhibitory effect: in words
T1 construct: purchased Sino Biological 10082-HNAH
T1 sequence (P08253 110-660): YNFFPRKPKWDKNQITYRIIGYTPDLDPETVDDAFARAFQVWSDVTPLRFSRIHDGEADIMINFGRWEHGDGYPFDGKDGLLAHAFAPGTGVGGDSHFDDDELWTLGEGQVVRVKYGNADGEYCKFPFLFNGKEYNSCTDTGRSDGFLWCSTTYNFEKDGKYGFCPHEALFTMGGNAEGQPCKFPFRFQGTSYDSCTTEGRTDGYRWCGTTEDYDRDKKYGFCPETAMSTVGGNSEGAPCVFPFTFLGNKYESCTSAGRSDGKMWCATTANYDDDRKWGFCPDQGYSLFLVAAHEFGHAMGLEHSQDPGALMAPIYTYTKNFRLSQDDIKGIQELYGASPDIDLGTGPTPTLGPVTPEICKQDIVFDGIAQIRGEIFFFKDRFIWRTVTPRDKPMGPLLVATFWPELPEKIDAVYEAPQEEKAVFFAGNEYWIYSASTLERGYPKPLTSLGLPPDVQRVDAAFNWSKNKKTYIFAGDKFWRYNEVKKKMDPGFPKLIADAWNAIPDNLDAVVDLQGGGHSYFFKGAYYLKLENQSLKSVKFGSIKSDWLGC
Outline: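 Human proMMP-2 and proMMP-9 were activated with 1 mM APMA (37 °C, 2 h), then used at 6.5 nM (MMP-2) or 10 nM (MMP-9) in Tris/NaCl/CaCl2/Brij 35 buffer, pH 7.5. Enzyme was preincubated with compound 30 min at RT; 25 μM DNP-Pro-Leu-Gly-Met-Trp-Ser-Arg substrate was added and fluorescence (ex 280/em 360 nm) followed 30 min. IC50 from logistic fits of Vmax.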

MMP-9 = biological target: T2, MMP-9 (Homo sapiens, UniProt P14780); test: Dynamic dual-pharmacophore DEL selection against MMP-9, NGS decoding; format: binding; settings: MMP9 selection; for MMP9 3L Enrichment Fold: 3L library (Supplementary fig 13); for MMP9 3L Count: 3L library; for MMP9 3L Count / MMP9 5L Count: sequence count (Supplementary fig 13); for MMP9 5L Enrichment Fold: 5L library (Supplementary fig 13); for MMP9 5L Count: 5L library
T2 construct: purchased Sino Biological 10327-HNAH
Text: Matrix metalloproteinases (MMPs) are zinc-dependent endopeptidases capable of degrading and remodeling extracellular matrix components[46],[47]. They are attractive therapeutic targets as high expression levels were detected in various diseases, such as inflammatory diseases, and at different stages of cancers, including metastasis, invasion, and angiogenesis[47]–[53]. As shown in Supplementary Fig. 3c, we performed selections against the two gelatinases (human MMP-2 and human MMP-9) to identify binding fragments for later design and synthesis of small molecule inhibitors. After selection, the three sub-libraries were decoded, and the enrichment was calculated by dividing the post-selection fraction (count/total counts) by the pre-selection fraction (Fig. 4a and Supplementary Fig. 13).
4 µg of MMP-2/MMP-9 was dissolved in 100 µl of selection buffer containing 25 mM Tris-base, 10 mM CaCl2, 150 mM NaCl, 0.05% Tween 20, pH 7.5. 10 µl of 4-Aminophenylmercuric acetate (APMA) (100 mM) solution was added to the protein solution and incubated at 37 °C for 1 h. After activation, the solution was added on top of 40 µl pre-washed Ni-NTA resin and incubated for 30 min on a rotary shaker. The supernatant was discarded, and the resin was washed three times with the selection buffer.
For each independent selection, three sub-libraries were mixed in the selection buffer with a final concentration of 40 nM of each sub-library in 100 µl. The mixture was heat denatured at 90 °C for 1 min and slowly cooled down to allow the formation of the trio-pharmacophore library. The dynamic dual-pharmacophore DEL was provided by DyNAbind GmbH (Merck, DYNA001).
The assembled library was incubated with the protein-bound solid support for 2 h at RT on a rotary shaker. In parallel, selection on bare solid support served as the negative control to exclude promiscuous binders on the resin. After panning, the supernatant was discarded, and the resin was washed three times with 1 ml selection buffer. Finally, 100 µl of 50 mM Tris buffer, pH 7.4 was added to resuspend the resin and the resin was incubated at 95 °C for 5 min to denature the protein, release, and collect the bound library members.
The eluted library members were subjected to sample preparation for NGS. NGS preparation was achieved by two-step PCR. First, the individual selection was indexed using primers containing unique sequences corresponding to each selection. The amplified product was purified from 2% agarose gel. Second, the purified DNA from all selections were pooled in equal amount and subjected to the 2nd PCR step to attach sequences compatible with the NGS flow cell and the sequencing primers. NGS was performed by Novogene UK with Novaseq 6000. Raw data files (fastq files) obtained were decoded using a custom python script and excel. The sequence reads corresponding to each sample was retrieved by searching for the correct index unique to each selection. Then, the code region was extracted from each sequence and assigned to the corresponding identity. The count of each code in each selection sample was obtained by looping through the total reads and counting the occurrence of each code. The enrichment fold of each compound was calculated by first, dividing the count by the total count to get the abundance, second, the abundance after the selection was divided by the abundance of pre-selection to reflect the distribution change of the compound. Next, the enrichment fold was plotted against the count for each member of the library to give the scatter plots as in Fig. 4.

[1] = MMP-2, concentration 1.95 µM, read-out: Mean (MMP-2 dose-response, Supplementary fig 15)

T2 sequence (P14780 107-707 limits assumed): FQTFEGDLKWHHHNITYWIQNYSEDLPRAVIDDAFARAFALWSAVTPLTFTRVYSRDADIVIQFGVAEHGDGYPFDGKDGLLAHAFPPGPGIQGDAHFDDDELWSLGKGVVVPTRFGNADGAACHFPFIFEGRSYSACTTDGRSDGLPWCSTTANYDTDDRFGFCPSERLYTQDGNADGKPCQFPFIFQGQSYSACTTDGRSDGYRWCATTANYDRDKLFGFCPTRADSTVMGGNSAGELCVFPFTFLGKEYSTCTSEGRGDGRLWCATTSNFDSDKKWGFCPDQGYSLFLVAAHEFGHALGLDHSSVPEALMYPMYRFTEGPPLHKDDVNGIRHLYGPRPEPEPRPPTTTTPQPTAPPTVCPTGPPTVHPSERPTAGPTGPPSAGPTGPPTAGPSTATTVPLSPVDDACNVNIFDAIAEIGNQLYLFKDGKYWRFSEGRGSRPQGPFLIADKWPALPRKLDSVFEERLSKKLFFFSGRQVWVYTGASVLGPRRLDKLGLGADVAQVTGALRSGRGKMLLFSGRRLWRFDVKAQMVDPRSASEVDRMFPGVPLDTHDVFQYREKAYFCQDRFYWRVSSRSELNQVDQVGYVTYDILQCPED

SMILES: Cn1c(O)nc2cc(C(=O)O)cnc21 [Compound 826]
- remaining activity at 0.0305176 µM (MMP-2; Figure 5a, fragment concentration 0.0305176 µM, read-out: Normalized activity (Mean)): 105%
- remaining activity at 0.12207 µM (MMP-2; Figure 5a, fragment concentration 0.12207 µM, read-out: Normalized activity (Mean)): 112%
- remaining activity at 0.488281 µM (MMP-2; Figure 5a, fragment concentration 0.488281 µM, read-out: Normalized activity (Mean)): 97.4%
- remaining activity at 1.95312 µM (MMP-2; Figure 5a, fragment concentration 1.95312 µM, read-out: Normalized activity (Mean)): 96.2%
- remaining activity at 7.8125 µM (MMP-2; Figure 5a, fragment concentration 7.8125 µM, read-out: Normalized activity (Mean)): 103%
- remaining activity at 31.25 µM (MMP-2; Figure 5a, fragment concentration 31.25 µM, read-out: Normalized activity (Mean)): 92.9%
- remaining activity at 125 µM (MMP-2; Figure 5a, fragment concentration 125 µM, read-out: Normalized activity (Mean)): 97.7%
- remaining activity at 500 µM (MMP-2; Figure 5a, fragment concentration 500 µM, read-out: Normalized activity (Mean)): 89.5%
- remaining activity at 0.12 µM (MMP-2; MMP-2, concentration 0.12 µM, read-out: Mean (MMP-2, Supplementary fig 16)): 112%
- remaining activity at 0.49 µM (MMP-2; MMP-2, concentration 0.49 µM, read-out: Mean (MMP-2, Supplementary fig 16)): 97.4%
- remaining activity at 1.95 µM (MMP-2; MMP-2, concentration 1.95 µM, read-out: Mean (MMP-2, Supplementary fig 16)): 96.2%
- remaining activity at 7.81 µM (MMP-2; MMP-2, concentration 7.81 µM, read-out: Mean (MMP-2, Supplementary fig 16)): 103%
- remaining activity at 31.25 µM (MMP-2; MMP-2, concentration 31.25 µM, read-out: Mean (MMP-2, Supplementary fig 16)): 92.9%
- remaining activity at 125 µM (MMP-2; MMP-2, concentration 125.00 µM, read-out: Mean (MMP-2, Supplementary fig 16)): 97.7%
- remaining activity at 500 µM (MMP-2; MMP-2, concentration 500.00 µM, read-out: Mean (MMP-2, Supplementary fig 16)): 89.5%
- remaining activity at 0.12 µM (MMP-2; MMP-2, concentration 0.12 µM, read-out: Mean (MMP-2 dose-response, Supplementary fig 15)): 112%
- remaining activity at 0.12 µM (MMP-2; MMP-2, concentration 0.12 µM, read-out: Mean (dose-response, Supplementary fig 17)): 112%
- remaining activity at 0.49 µM (MMP-2; MMP-2, concentration 0.49 µM, read-out: Mean (MMP-2 dose-response, Supplementary fig 15)): 97.4%
- remaining activity at 0.49 µM (MMP-2; MMP-2, concentration 0.49 µM, read-out: Mean (dose-response, Supplementary fig 17)): 97.4%
- remaining activity at 1.95 µM (MMP-2; [1]): 96.2%
- remaining activity at 1.95 µM (MMP-2; MMP-2, concentration 1.95 µM, read-out: Mean (dose-response, Supplementary fig 17)): 96.2%
- remaining activity at 7.81 µM (MMP-2; MMP-2, concentration 7.81 µM, read-out: Mean (MMP-2 dose-response, Supplementary fig 15)): 103%
- remaining activity at 7.81 µM (MMP-2; MMP-2, concentration 7.81 µM, read-out: Mean (dose-response, Supplementary fig 17)): 103%
- remaining activity at 31.25 µM (MMP-2; MMP-2, concentration 31.25 µM, read-out: Mean (MMP-2 dose-response, Supplementary fig 15)): 92.9%
- remaining activity at 31.25 µM (MMP-2; MMP-2, concentration 31.25 µM, read-out: Mean (dose-response, Supplementary fig 17)): 92.9%
- remaining activity at 125 µM (MMP-2; MMP-2, concentration 125.00 µM, read-out: Mean (MMP-2 dose-response, Supplementary fig 15)): 97.7%
- remaining activity at 125 µM (MMP-2; MMP-2, concentration 125.00 µM, read-out: Mean (dose-response, Supplementary fig 17)): 97.7%
- remaining activity at 500 µM (MMP-2; MMP-2, concentration 500.00 µM, read-out: Mean (MMP-2 dose-response, Supplementary fig 15)): 89.5%
- remaining activity at 500 µM (MMP-2; MMP-2, concentration 500.00 µM, read-out: Mean (dose-response, Supplementary fig 17)): 89.5%
- inhibitory effect (MMP-2): No inhibitory effects could be measured; also recorded: did not exhibit meaningful activity
- MMP9 3L Enrichment Fold (MMP-9): 4.359
- MMP9 3L Count (MMP-9): 10836
- MMP9 5L Enrichment Fold (MMP-9): 1.703
- MMP9 5L Count (MMP-9): 1619

SMILES: Cc1cc(=O)[nH]c(-n2nc(C)c(CCC(=O)O)c2C)n1 [Compound 693]
- remaining activity at 0.0156098 µM (MMP-2; Figure 5a, fragment concentration 0.0156098 µM, read-out: Normalized activity (Mean)): 93%
- remaining activity at 0.0780488 µM (MMP-2; Figure 5a, fragment concentration 0.0780488 µM, read-out: Normalized activity (Mean)): 96.4%
- remaining activity at 0.390244 µM (MMP-2; Figure 5a, fragment concentration 0.390244 µM, read-out: Normalized activity (Mean)): 90.7%
- remaining activity at 1.95122 µM (MMP-2; Figure 5a, fragment concentration 1.95122 µM, read-out: Normalized activity (Mean)): 92.4%
- remaining activity at 9.7561 µM (MMP-2; Figure 5a, fragment concentration 9.7561 µM, read-out: Normalized activity (Mean)): 83.6%
- remaining activity at 48.7805 µM (MMP-2; Figure 5a, fragment concentration 48.7805 µM, read-out: Normalized activity (Mean)): 70.5%
- remaining activity at 243.902 µM (MMP-2; Figure 5a, fragment concentration 243.902 µM, read-out: Normalized activity (Mean)): 41.9%
- remaining activity at 1219.51 µM (MMP-2; Figure 5a, fragment concentration 1219.51 µM, read-out: Normalized activity (Mean)): 5.76%
- remaining activity at 0.0156 µM (MMP-2; MMP-2, concentration 0.0156 µM, read-out: Mean (MMP-2 dose-response, Supplementary fig 15)): 93%
- remaining activity at 0.08 µM (MMP-2; MMP-2, concentration 0.08 µM, read-out: Mean (MMP-2 dose-response, Supplementary fig 15)): 96.3%
- remaining activity at 0.39 µM (MMP-2; MMP-2, concentration 0.39 µM, read-out: Mean (MMP-2 dose-response, Supplementary fig 15)): 90.7%
- remaining activity at 1.95 µM (MMP-2; [1]): 92.4%
- remaining activity at 9.75 µM (MMP-2; MMP-2, concentration 9.75 µM, read-out: Mean (MMP-2 dose-response, Supplementary fig 15)): 83.6%
- remaining activity at 9.76 µM (MMP-2; MMP-2, concentration 9.76 µM, read-out: Mean (MMP-2 dose-response, Supplementary fig 15)): 83.6%
- remaining activity at 48.76 µM (MMP-2; MMP-2, concentration 48.76 µM, read-out: Mean (MMP-2 dose-response, Supplementary fig 15)): 70.5%
- remaining activity at 48.78 µM (MMP-2; MMP-2, concentration 48.78 µM, read-out: Mean (MMP-2 dose-response, Supplementary fig 15)): 70.5%
- remaining activity at 243.8 µM (MMP-2; MMP-2, concentration 243.80 µM, read-out: Mean (MMP-2 dose-response, Supplementary fig 15)): 41.9%
- remaining activity at 243.9 µM (MMP-2; MMP-2, concentration 243.90 µM, read-out: Mean (MMP-2 dose-response, Supplementary fig 15)): 41.9%
- remaining activity at 1219.51 µM (MMP-2; MMP-2, concentration 1219.51 µM, read-out: Mean (MMP-2 dose-response, Supplementary fig 15)): 5.76%
- inhibitory effect (MMP-2): high µM range
- IC50 (MMP-2; mean ± SE, n.d: not detected, Fig. 5d unit inferred, µM, read-out: IC50): 169 ± 15.8 µM
- MMP9 3L Enrichment Fold (MMP-9): 1.167
- MMP9 3L Count (MMP-9): 1032
- MMP9 5L Enrichment Fold (MMP-9): 4.572
- MMP9 5L Count (MMP-9): 8985
